Source: ChEMBL document CHEMBL3797140, “Acridin-3,6-dialkyldithiourea hydrochlorides as new photosensitizers for photodynamic therapy of mouse leukemia cells” (Bioorg Med Chem, 2016)
Calls of active or inactive are those of the source. The calls are words filed in the database; no cut-off is given here.

Experiments:
L1210 [1] = experiment: Phototoxicity against mouse L1210 cells assessed as cell viability preincubated for 1 hr followed by 1.05 J/cm2 UV-A irradiation measured after 48 hrs by MTT assay; type: functional, cell-based; settings: L1210, light or radiation study
[2] = Dark toxicity against mouse L1210 cells assessed as cell viability after 48 hrs by MTT assay; type: cell-based
[3] = Dark toxicity against mouse NIH/3T3 cells assessed as cell viability after 48 hrs by MTT assay; type: cell-based, NIH3T3
[4] = Phototoxicity against mouse NIH/3T3 cells assessed as cell viability preincubated for 1 hr followed by 1.05 J/cm2 UV-A irradiation measured after 48 hrs by MTT assay; type: cell-based; settings: NIH3T3, light or radiation study
Calf thymus DNA = experiment: Binding affinity to calf thymus DNA by UV-visible spectrophotometry; type: nucleic-acid assay; settings: Bos taurus
L1210 [5] = experiment: Induction of ROS generation in mouse L1210 cells at 0.5 uM preincubated for 1 hr followed by 1.05 J/cm2 UV-A irradiation by fluorescence microscopy in presence of trolox; type: functional, cell-based
[6] = Octanol-water partition coefficient, logP of the compound; type: physicochemical
L1210 [7] = experiment: Drug uptake in mouse L1210 cells at 1 uM after 15 mins to 6 hrs by fluorescence microscopy; type: ADME, cell-based; settings: l1210, 1 µM
[8] = Drug uptake in plasma membrane of mouse L1210 cells at 1 uM after 1 to 6 hrs by fluorescence microscopy; type: ADME, cell-based; settings: l1210, 1 µM
[9] = Drug uptake in cytosol of mouse L1210 cells at 1 uM after 1 to 6 hrs by fluorescence microscopy; type: ADME, cell-based
L1210 [10] = experiment: Induction of cell cycle arrest in mouse L1210 cells assessed as accumulation at sub-G0 phase at 0.5 uM preincubated for 1 hr measured after 4 hrs by propidium iodide staining-based flow cytometry in absence of light (reference value: 16.6 +/- 0.4%); settings: l1210, 4 h
L1210 [11] = experiment: Induction of cell cycle arrest in mouse L1210 cells assessed as accumulation at sub-G0 phase at 1 uM preincubated for 1 hr measured after 4 hrs by propidium iodide staining-based flow cytometry in absence of light (reference value: 16.6 +/- 0.4%); settings: l1210, 4 h
L1210 [12] = experiment: Induction of cell cycle arrest in mouse L1210 cells assessed as accumulation at sub-G0 phase at 0.5 uM preincubated for 1 hr measured after 24 hrs by propidium iodide staining-based flow cytometry in absence of light (reference value: 16.6 +/- 0.4%); settings: l1210, 24 h
L1210 [13] = experiment: Induction of cell cycle arrest in mouse L1210 cells assessed as accumulation at sub-G0 phase at 1 uM preincubated for 1 hr measured after 24 hrs by propidium iodide staining-based flow cytometry in absence of light (reference value: 16.6 +/- 0.4%); settings: l1210, 24 h
L1210 [14] = experiment: Induction of cell cycle arrest in mouse L1210 cells assessed as accumulation at sub-G0 phase at 0.5 uM preincubated for 1 hr followed by 1.05 J/cm2 UV-A irradiation measured after 4 hrs by propidium iodide staining-based flow cytometry (reference value: 16.8 +/- 0.6%); type: functional
L1210 [15] = experiment: Induction of cell cycle arrest in mouse L1210 cells assessed as accumulation at sub-G0 phase at 1 uM preincubated for 1 hr followed by 1.05 J/cm2 UV-A irradiation measured after 4 hrs by propidium iodide staining-based flow cytometry (reference value: 16.8 +/- 0.6%); type: functional
L1210 [16] = experiment: Induction of cell cycle arrest in mouse L1210 cells assessed as accumulation at sub-G0 phase at 0.5 uM preincubated for 1 hr followed by 1.05 J/cm2 UV-A irradiation measured after 24 hrs by propidium iodide staining-based flow cytometry (reference value: 16.8 +/- 0.6%); type: functional
L1210 [17] = experiment: Induction of cell cycle arrest in mouse L1210 cells assessed as accumulation at sub-G0 phase at 1 uM preincubated for 1 hr followed by 1.05 J/cm2 UV-A irradiation measured after 24 hrs by propidium iodide staining-based flow cytometry (reference value: 16.8 +/- 0.6%); type: functional
L1210 [18] = experiment: Induction of cytomorphological changes in mouse L1210 cells at 0.5 uM preincubated for 1 hr measured after 6 to 24 hrs by Hoechst 33342 staining-based fluorescence microscopy in the absence of light; type: cell-based; settings: l1210, 0.5 µM
L1210 [19] = experiment: Induction of cytomorphological changes in mouse L1210 cells assessed as cell shrinkage at 0.5 uM preincubated for 1 hr followed by 1.05 J/cm2 UV-A irradiation measured after 6 to 24 hrs by Hoechst 33342 staining-based fluorescence microscopy; type: functional
L1210 [20] = experiment: Induction of cytomorphological changes in mouse L1210 cells assessed as condensed chromatin at 0.5 uM preincubated for 1 hr followed by 1.05 J/cm2 UV-A irradiation measured after 6 to 24 hrs by Hoechst 33342 staining-based fluorescence microscopy; type: functional, cell-based
L1210 [21] = experiment: Induction of apoptosis in mouse L1210 cells assessed as late apoptotic cells at 0.5 uM preincubated for 1 hr followed by 1.05 J/cm2 UV-A irradiation measured after 24 hrs by Hoechst 33342 and propidium iodide staining-based fluorescence microscopy; type: functional, cell-based
L1210 [22] = experiment: Phototoxicity in mouse L1210 cells at 0.5 uM preincubated for 1 hr followed by 1.05 J/cm2 UV-A irradiation measured after 6 hrs by lactate dehydrogenase leakage assay; type: functional, cell-based
L1210 [23] = experiment: Phototoxicity in mouse L1210 cells at 1 uM preincubated for 1 hr followed by 1.05 J/cm2 UV-A irradiation measured after 24 hrs by lactate dehydrogenase leakage assay; type: functional, cell-based
L1210 [24] = experiment: […] in mouse L1210 cells at 1 uM preincubated for 1 hr followed by 1.05 J/cm2 UV-A irradiation measured after 24 hrs by lactate dehydrogenase leakage assay; type: cell-based; settings: l1210, 24 h
L1210 [25] = experiment: Induction of DNA fragmentation in mouse L1210 cells at 0.5 to 1 uM preincubated for 1 hr followed by 1.05 J/cm2 UV-A irradiation measured after 6 hrs by agarose gel electrophoresis; type: functional, cell-based
L1210 [26] = experiment: Induction of apoptosis in mouse L1210 cells at 0.5 uM preincubated for 1 hr followed by 1.05 J/cm2 UV-A irradiation measured after 5 hrs by Annexin Red based flow cytometry; type: functional

SMILES: CCCNC(=S)Nc1ccc2cc3ccc(NC(=S)NCCC)cc3nc2c1.Cl
- IC50 (L1210 [1]): 480 nM
- IC50 at 48 h [2]: 5.7 µM
- IC50 at 48 h [3]: 43.5 µM
- IC50 [4]: 4.4 µM
- K (Calf thymus DNA): 6.8 ×10⁵ /M
- Activity (L1210 [5]): inactive
- logP [6]: 1.28
- Drug uptake (L1210 [7]): Active
- Drug uptake [8]: Not Active
- Drug uptake [9]: Not Active
- Activity (L1210 [10]): 17.7%
- Activity (L1210 [11]): 17.2%
- Activity (L1210 [12]): 25.9%
- Activity (L1210 [13]): 21.1%
- Activity (L1210 [14]): 22.5%
- Activity (L1210 [15]): 32.5%
- Activity (L1210 [16]): 43.2%
- Activity (L1210 [17]): 47.9%
- Activity (L1210 [18]): Non-toxic
- Activity (L1210 [19]): Active
- Activity (L1210 [20]): Active
- Activity (L1210 [21]): Active
- Activity (L1210 [22]): inactive
- Activity (L1210 [23]): Active
- Activity (L1210 [24]): Non-toxic
- Activity (L1210 [25]): Active
- Activity (L1210 [26]): 24%
